From ChEMBL document CHEMBL3779897, “Novel quinoline-derived mTOR inhibitors with remarkable enzymatic and cellular activities: design, synthesis and biological evaluation” (Medchemcomm, 2016)
Calls of active or inactive are those of the source. No cut-off for these calls is given here.

What was measured:
cells [1] = conditions: Homo sapiens, HCT-116, 72 h
MCF7 [2] = assay: cells; conditions: Homo sapiens, MCF7, 72 h
cells [3] = conditions: Homo sapiens, PC-3, 72 h
[4] = molecular target: T1, Serine/threonine-protein kinase mTOR (Homo sapiens, UniProt P42345); assay: Inhibition of human mTOR using ULight-4E-BP1 peptide as substrate after 1 hr by Lance ultra assay
MCF7 [5] = assay: Inhibition of mTORC2 in human MCF7 cells assessed as downregulation of Akt Ser473 phosphorylation at 0.5 uM after 2 hrs by Western blot analysis; format: cell-based
[6] = molecular target: T2, Phosphatidylinositol 4,5-bisphosphate 3-kinase catalytic subunit beta isoform (Homo sapiens, UniProt P42338); assay: Inhibition of PI3Kbeta (unknown origin) after 1 hr by ADP-Glo luminescent assay
Target sequence in this assay (P42338 whole entry, canonical isoform): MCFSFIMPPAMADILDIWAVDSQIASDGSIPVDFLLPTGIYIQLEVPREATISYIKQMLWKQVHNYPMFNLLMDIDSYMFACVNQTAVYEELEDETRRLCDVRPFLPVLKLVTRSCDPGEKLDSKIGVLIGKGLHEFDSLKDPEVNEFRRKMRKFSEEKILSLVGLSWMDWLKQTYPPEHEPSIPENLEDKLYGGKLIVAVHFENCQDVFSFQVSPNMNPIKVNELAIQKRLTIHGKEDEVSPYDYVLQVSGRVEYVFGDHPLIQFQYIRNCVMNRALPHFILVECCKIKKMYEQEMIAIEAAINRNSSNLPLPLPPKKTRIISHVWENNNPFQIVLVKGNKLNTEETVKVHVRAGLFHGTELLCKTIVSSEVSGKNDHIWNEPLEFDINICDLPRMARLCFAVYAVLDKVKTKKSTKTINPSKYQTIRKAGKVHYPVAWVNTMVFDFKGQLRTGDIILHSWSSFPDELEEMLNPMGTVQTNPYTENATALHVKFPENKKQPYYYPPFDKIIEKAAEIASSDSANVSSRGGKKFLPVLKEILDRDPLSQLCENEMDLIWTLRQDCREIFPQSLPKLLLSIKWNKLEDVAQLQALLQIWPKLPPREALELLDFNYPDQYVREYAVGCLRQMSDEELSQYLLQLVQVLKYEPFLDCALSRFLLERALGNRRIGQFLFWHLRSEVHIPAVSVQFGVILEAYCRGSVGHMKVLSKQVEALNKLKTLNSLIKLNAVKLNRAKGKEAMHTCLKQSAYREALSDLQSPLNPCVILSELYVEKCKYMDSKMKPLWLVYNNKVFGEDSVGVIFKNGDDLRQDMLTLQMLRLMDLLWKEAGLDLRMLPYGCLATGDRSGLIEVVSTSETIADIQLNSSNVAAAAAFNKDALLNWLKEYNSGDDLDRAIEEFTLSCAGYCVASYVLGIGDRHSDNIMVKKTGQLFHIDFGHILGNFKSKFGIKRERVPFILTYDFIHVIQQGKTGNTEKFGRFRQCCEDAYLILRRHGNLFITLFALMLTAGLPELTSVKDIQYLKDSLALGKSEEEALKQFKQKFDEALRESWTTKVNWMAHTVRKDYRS

mTORC1 (Homo sapiens) [7] = molecular target: T3, mTORC1 (Homo sapiens) (UniProt P42345+Q8N122+Q9BVC4); assay: Inhibition of mTORC1 in human MCF7 cells assessed as downregulation of S6 Ser235 phosphorylation at 0.5 uM after 2 hrs by Western blot analysis; format: cell-based
MCF7 [8] = assay: Inhibition of mTORC2 in human MCF7 cells assessed as downregulation of Akt Ser473 phosphorylation at 0.1 uM after 2 hrs by Western blot analysis; format: cell-based
[9] = molecular target: T4, Phosphatidylinositol 4,5-bisphosphate 3-kinase catalytic subunit gamma isoform (Homo sapiens, UniProt P48736); assay: Inhibition of human PI3Kgamma after 1 hr by ADP-Glo luminescent assay
Target sequence in this assay (P48736 whole entry, canonical isoform): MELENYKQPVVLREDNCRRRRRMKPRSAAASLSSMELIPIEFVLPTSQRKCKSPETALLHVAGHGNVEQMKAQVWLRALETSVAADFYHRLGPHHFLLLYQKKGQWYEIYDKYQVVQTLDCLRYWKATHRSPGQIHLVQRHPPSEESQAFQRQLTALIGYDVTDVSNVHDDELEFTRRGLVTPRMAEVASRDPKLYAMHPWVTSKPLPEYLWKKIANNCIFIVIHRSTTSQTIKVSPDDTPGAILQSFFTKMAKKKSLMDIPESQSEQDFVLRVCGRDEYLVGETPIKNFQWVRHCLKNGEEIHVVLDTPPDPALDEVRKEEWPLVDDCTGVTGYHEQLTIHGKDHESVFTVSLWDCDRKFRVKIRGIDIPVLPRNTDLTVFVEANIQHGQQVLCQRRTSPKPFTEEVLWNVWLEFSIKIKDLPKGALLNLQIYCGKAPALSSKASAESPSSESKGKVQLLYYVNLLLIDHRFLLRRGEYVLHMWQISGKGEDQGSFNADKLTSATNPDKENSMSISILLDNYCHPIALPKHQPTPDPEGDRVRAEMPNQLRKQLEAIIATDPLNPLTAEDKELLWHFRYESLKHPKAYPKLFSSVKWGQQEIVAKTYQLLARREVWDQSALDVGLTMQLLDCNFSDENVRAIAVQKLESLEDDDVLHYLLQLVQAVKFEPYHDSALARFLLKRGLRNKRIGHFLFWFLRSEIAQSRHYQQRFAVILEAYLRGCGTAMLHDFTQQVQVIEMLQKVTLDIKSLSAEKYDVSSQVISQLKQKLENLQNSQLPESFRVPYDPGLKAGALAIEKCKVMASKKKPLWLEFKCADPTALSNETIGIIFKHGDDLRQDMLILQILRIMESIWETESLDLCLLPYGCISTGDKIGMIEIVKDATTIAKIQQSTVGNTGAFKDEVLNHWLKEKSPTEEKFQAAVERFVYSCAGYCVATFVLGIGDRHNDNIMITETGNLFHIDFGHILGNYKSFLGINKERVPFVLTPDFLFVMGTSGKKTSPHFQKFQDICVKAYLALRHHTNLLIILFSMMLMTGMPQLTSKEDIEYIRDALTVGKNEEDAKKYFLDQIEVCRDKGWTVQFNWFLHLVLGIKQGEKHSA

[10] = molecular target: T5, Phosphatidylinositol 4,5-bisphosphate 3-kinase catalytic subunit alpha isoform (Homo sapiens, UniProt P42336); assay: Inhibition of human recombinant PI3Kalpha using PIP2 as substrate after 1 hr by Kinase-Glo luminescent assay
[11] = molecular target: T6, Phosphatidylinositol 4,5-bisphosphate 3-kinase catalytic subunit delta isoform (Homo sapiens, UniProt O00329); assay: Inhibition of PI3Kdelta (unknown origin) after 1 hr by ADP-Glo luminescent assay
T6 sequence (O00329 whole entry): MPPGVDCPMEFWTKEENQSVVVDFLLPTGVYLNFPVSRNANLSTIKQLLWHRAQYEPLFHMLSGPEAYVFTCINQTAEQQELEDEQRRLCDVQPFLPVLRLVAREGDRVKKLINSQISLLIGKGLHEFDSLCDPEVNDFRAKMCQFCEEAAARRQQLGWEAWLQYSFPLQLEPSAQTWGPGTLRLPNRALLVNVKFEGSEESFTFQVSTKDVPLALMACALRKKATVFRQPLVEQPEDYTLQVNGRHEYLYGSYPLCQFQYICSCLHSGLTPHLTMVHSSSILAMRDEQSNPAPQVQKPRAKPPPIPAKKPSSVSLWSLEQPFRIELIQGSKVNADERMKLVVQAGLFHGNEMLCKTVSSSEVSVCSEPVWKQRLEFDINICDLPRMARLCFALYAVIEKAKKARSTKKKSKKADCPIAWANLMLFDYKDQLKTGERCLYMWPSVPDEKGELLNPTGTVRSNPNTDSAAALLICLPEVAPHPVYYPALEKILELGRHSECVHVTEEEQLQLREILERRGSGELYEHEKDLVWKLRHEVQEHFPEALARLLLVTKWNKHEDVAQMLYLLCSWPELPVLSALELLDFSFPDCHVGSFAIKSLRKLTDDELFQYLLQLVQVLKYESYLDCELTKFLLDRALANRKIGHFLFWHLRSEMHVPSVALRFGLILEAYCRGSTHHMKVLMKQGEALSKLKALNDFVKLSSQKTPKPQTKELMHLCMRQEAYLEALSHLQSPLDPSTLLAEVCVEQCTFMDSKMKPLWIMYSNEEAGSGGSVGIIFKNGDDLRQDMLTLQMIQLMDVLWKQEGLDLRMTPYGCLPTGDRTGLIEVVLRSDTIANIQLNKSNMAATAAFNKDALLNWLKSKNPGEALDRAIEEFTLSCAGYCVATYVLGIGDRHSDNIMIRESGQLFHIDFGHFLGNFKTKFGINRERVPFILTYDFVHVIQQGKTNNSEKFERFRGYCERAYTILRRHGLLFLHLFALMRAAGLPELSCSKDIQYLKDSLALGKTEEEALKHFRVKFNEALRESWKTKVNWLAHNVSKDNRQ

mTORC1 (Homo sapiens) [12] = molecular target: T3, mTORC1 (Homo sapiens); assay: Inhibition of mTORC1 in human MCF7 cells assessed as downregulation of S6 Ser235 phosphorylation at 0.1 uM after 2 hrs by Western blot analysis; format: cell-based
[13] = molecular target: T2, Phosphatidylinositol 4,5-bisphosphate 3-kinase catalytic subunit beta isoform; assay: Inhibition of PI3Kbeta (unknown origin) at 1 uM after 1 hr by ADP-Glo luminescent assay
Target sequence in this assay (P42338 whole entry, looked up, canonical isoform): as the sequence (P42338 whole entry, canonical isoform) above

[14] = molecular target: T7, Phosphatidylinositol 4,5-bisphosphate 3-kinase catalytic subunit delta isoform (Homo sapiens) (UniProt O00329); assay: Inhibition of PI3Kdelta (unknown origin) at 1 uM after 1 hr by ADP-Glo luminescent assay
T7 sequence (whole entry): T6 sequence (O00329 whole entry)

[15] = molecular target: T5, Phosphatidylinositol 4,5-bisphosphate 3-kinase catalytic subunit alpha isoform; assay: Inhibition of human recombinant PI3Kalpha using PIP2 as substrate at 1 uM after 1 hr by Kinase-Glo luminescent assay
[16] = Stability in simulated gastric fluid after 45 mins; format: ADME; conditions: simulated gi fluid, 0.75 h
[17] = molecular target: T4, Phosphatidylinositol 4,5-bisphosphate 3-kinase catalytic subunit gamma isoform; assay: Inhibition of human PI3Kgamma at 1 uM after 1 hr by ADP-Glo luminescent assay
Target sequence in this assay (P48736 whole entry, looked up, canonical isoform): as the sequence (P48736 whole entry, canonical isoform) above

Liver microsome = assay: Stability in rat liver microsomes after 30 mins; format: ADME; conditions: 0.5 h
[18] = Stability in simulated intestinal fluid after 45 mins; format: ADME; conditions: simulated gi fluid, 0.75 h
[19] = molecular target: T1, Serine/threonine-protein kinase mTOR; assay: Inhibition of human mTOR at 3000 nM using ULight-4E-BP1 peptide as substrate after 1 hr by Lance ultra assay

T5 sequence (P42336 whole entry, canonical isoform): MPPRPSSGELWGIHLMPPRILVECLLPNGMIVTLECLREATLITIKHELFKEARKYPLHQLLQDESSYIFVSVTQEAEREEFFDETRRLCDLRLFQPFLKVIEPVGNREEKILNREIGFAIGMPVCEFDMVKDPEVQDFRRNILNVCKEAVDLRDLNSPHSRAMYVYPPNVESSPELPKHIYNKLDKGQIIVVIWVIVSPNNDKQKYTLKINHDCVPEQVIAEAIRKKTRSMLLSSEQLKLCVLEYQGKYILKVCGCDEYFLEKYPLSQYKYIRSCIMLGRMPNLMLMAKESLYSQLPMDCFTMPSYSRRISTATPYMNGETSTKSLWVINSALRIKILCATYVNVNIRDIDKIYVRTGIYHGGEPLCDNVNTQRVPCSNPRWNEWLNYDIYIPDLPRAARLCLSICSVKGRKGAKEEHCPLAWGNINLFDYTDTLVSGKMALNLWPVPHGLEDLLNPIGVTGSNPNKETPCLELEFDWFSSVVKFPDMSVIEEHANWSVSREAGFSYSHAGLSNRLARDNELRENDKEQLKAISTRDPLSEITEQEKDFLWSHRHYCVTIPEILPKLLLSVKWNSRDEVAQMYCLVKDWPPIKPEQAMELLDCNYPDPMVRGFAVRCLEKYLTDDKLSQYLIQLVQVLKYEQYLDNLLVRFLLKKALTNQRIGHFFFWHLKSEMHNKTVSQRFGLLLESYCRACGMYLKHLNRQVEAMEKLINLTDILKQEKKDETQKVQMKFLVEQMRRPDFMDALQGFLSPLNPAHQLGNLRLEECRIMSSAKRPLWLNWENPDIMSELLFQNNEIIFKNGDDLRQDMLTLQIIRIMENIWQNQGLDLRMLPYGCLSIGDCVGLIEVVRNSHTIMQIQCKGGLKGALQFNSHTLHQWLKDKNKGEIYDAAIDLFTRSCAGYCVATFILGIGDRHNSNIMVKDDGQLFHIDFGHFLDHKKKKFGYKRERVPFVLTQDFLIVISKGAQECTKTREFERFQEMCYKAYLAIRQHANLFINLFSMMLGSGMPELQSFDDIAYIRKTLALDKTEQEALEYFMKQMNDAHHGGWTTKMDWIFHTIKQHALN
T3 sequence (Q8N122 whole entry, looked up, other chains not shown): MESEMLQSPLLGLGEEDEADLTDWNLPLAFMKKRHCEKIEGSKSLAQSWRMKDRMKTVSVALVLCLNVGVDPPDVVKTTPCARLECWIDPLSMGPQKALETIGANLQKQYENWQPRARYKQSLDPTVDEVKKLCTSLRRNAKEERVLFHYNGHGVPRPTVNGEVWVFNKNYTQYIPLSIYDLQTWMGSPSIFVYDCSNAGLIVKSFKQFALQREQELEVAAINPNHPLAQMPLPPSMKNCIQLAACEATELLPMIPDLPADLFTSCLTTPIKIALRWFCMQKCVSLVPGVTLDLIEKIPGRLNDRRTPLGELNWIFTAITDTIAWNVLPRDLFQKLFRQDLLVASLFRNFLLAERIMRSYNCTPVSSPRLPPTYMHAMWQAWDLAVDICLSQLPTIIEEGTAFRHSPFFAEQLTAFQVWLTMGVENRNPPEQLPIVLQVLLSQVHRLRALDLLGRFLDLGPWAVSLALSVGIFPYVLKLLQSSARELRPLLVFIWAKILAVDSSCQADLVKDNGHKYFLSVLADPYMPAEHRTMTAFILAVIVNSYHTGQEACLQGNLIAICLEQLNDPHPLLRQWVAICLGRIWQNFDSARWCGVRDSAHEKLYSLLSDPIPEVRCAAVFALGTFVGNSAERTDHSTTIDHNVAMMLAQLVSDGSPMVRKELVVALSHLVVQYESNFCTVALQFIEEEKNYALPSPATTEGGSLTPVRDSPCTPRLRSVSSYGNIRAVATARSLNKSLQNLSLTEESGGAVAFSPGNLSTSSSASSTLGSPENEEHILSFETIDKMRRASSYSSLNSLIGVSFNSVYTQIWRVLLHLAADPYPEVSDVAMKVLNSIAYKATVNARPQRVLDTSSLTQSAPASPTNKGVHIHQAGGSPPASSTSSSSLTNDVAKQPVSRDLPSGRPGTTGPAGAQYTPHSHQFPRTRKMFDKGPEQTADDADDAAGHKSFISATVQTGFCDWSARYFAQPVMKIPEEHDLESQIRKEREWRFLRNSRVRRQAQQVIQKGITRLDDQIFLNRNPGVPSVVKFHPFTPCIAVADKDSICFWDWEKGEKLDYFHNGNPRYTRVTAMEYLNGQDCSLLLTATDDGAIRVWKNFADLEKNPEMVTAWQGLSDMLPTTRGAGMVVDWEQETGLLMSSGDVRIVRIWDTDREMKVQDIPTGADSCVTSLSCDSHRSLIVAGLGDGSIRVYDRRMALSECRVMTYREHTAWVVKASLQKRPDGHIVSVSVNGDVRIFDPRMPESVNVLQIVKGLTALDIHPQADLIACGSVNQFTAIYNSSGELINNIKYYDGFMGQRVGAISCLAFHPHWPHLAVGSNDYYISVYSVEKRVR
T3 sequence (Q9BVC4 whole entry, looked up, other chains not shown): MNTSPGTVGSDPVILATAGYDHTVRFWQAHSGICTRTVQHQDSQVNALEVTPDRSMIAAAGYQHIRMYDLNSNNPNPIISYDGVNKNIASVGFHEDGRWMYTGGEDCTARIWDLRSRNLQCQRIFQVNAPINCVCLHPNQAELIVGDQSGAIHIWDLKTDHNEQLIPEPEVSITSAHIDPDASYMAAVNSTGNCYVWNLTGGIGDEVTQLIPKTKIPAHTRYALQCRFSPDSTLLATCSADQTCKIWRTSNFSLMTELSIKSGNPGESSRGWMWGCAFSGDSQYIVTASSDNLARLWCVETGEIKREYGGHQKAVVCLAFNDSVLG

| SMILES | IC50 (cells [1]) [µM] | IC50 (MCF7 [2]) [µM] | IC50 (cells [3]) [µM] | other results |
| --- | --- | --- | --- | --- |
| CC(C)(C)C(=O)Nc1cnc2ccc(-c3cnc4ccccc4c3)cc2c1Nc1ccc(C(C)(C)C#N)cc1 | > 10 |  | > 10 |  |
| CC(=O)Nc1cnc2ccc(-c3cnc4ccccc4c3)cc2c1Nc1ccc(C(C)(C)C#N)cc1 | 3.95 | 0.44 | 2.56 |  |
| CC(=O)Nc1cnc2ccc(-c3cnc4ccccc4c3)cc2c1Nc1ccc(C(F)(F)F)cc1 | > 10 |  | > 10 | IC50 [4]: > 3 µM |
| CC(=O)Nc1cnc2ccc(-c3cnc4ccccc4c3)cc2c1Nc1ccc(C#N)cc1 | > 10 |  | > 10 | IC50 [4]: > 3 µM |
| CC(C)(C#N)c1ccc(Nc2c(NS(C)(=O)=O)cnc3ccc(-c4cnc5ccccc5c4)cc23)cc1 | > 10 |  | > 10 |  |
| CC(C)(C#N)c1ccc(Nc2c(N(S(C)(=O)=O)S(C)(=O)=O)cnc3ccc(-c4cnc5ccccc5c4)cc23)cc1 | > 10 |  | > 10 |  |
| CC(C)(C#N)c1ccc(Nc2c(NC(=O)C(F)(F)F)cnc3ccc(-c4cnc5ccccc5c4)cc23)cc1 | > 10 | 1.36 | > 10 | inhibition [19]: 92% |
| COc1cc(Nc2c(NC(C)=O)cnc3ccc(-c4cnc5ccccc5c4)cc23)cc(OC)c1 | > 10 |  | > 10 | IC50 [4]: > 3 µM |
| Cn1c(=O)n(-c2ccc(C(C)(C)C#N)cc2)c2c3cc(-c4cnc5ccccc5c4)ccc3ncc21 [DACTOLISIB] | 0.14 |  | 0.19 |  |

More lines, main results first:

| IC50 (cells [1]) [µM] | IC50 (MCF7 [2]) [µM] | IC50 (cells [3]) [µM] | SMILES | other results |
| --- | --- | --- | --- | --- |
| 0.64 | 0.3 | 1.05 | CC(C)(C)C(=O)Nc1cnc2ccc(-c3cnc4ccccc4c3)cc2c1Nc1ccc(N2CCNCC2)c(C(F)(F)F)c1 |  |
| 1.61 | 0.47 | 3.44 | Nc1cnc2ccc(-c3cnc4ccccc4c3)cc2c1Nc1ccc(N2CCNCC2)c(C(F)(F)F)c1 |  |
| 1.24 | 0.32 | 3.82 | O=C(Nc1cnc2ccc(-c3cnc4ccccc4c3)cc2c1Nc1ccc(N2CCNCC2)c(C(F)(F)F)c1)C(F)(F)F |  |
| 0.43 | 0.06 | 0.19 | CC(=O)Nc1cnc2ccc(-c3cnc4ccccc4c3)cc2c1Nc1ccc(N2CCN(S(C)(=O)=O)CC2)c(C(F)(F)F)c1 |  |
| > 10 | 0.79 | > 10 | CC(=O)N1CCN(c2ccc(Nc3c(NC(=O)C(C)(C)C)cnc4ccc(-c5cnc6ccccc6c5)cc34)cc2C(F)(F)F)CC1 |  |
| 0.11 | 0.04 | 0.17 | CC(=O)Nc1cnc2ccc(-c3cnc4ccccc4c3)cc2c1Nc1ccc(N2CCN(C(C)=O)CC2)c(C(F)(F)F)c1 | Activity (MCF7 [5]): Active; IC50 [6]: > 5 µM; Activity (mTORC1 (Homo sapiens) [7]): Active; Activity (MCF7 [8]): Active; IC50 [9]: 0.502 µM; IC50 [4]: 0.03 µM; IC50 [10]: 1.5 µM; IC50 [11]: 2.08 µM; Activity (mTORC1 (Homo sapiens) [12]): Active |
| 0.36 | 0.11 | 0.5 | CC(=O)Nc1cnc2ccc(-c3cnc4ccccc4c3)cc2c1Nc1ccc(N2CCNCC2)c(C(F)(F)F)c1.Cl | inhibition [13]: 1%; inhibition [14]: 34.9%; inhibition [15]: 42.1%; Stability [16]: Stable; inhibition [17]: 47.3%; Stability (Liver microsome): Stable; Stability [18]: Stable; IC50 [4]: 0.022 µM |
| 1.45 | 1.11 | 5.42 | CS(=O)(=O)Nc1cnc2ccc(-c3cnc4ccccc4c3)cc2c1Nc1ccc(N2CCNCC2)c(C(F)(F)F)c1 |  |
